These results are taken from patent US20130266590A1, “DIMERIC IAP INHIBITORS” (NOVARTIS AG, priority 2010, published 2013).

The structures appear in SMILES notation. Where two headings read alike, the source gives them in different places.

One assay has as its target cIAP1-BIR3 (Homo sapiens, UniProt Q13490). The assay can be described thus: Biacore SPR solution competition binding assay vs smac7mer peptide, cIAP1-BIR3. The note with it: 6 nM cIAP1-BIR3, read-out: CIAP-BIR3 Binding Biacore (Competitive) EC50. An excerpt: (§1) The compounds described herein above were profiled using a cellular assay (using Panc3.27 tumor cells) and a binding assay to determine the competition between the compounds of the present invention and smac7mer peptide for XIAP-BIR3 and cIAP1-BIR3 binding groove occupancy.
(§2) The present method includes utility of a Surface plasmon resonance (SPR)-based biosensor (Biacore™, GE Healthcare, Uppsala, Sweden) to examine competition between the compounds of the present invention and smac7mer peptide for XIAP-BIR3 and cIAP1-BIR3 binding groove occupancy.
(§3) Biacore™ utilizes the phenomenon of surface plasmon resonance (SPR) to detect and measure binding interactions. In a typical Biacore experiment, one of the interacting molecules is immobilized on a flexible dextran matrix while the interacting partner is flowed over the derivatized surface. A binding interaction results in an increase in mass on the sensor surface and a corresponding direct change in the refractive index of the medium in the vicinity of the sensor surface. Changes in refractive index or signal are recorded in resonance units (R.U.) Signal changes due to association and dissociation of complexes are monitored in a non-invasive manner, continuously and in real-time, the results of which are reported in the form of a sensorgram.
(§4) Biacore™ T100 (GE Healthcare, Uppsala, Sweden) was used to conduct all experiments reported herein. Sensor surface preparation and interaction analyses were performed at 25° C. Buffer and Biacore reagents were purchased from GE Healthcare. Running buffer containing 10 mM Hepes, pH7.4, 150 mM sodium chloride, 1.25 mM Dithiothreitol, 2% Dimethyl sulfoxide and 0.05% polysorbate 20 was utilized throughout all experiments.
(§5) Biotinylated smac7mer peptide was diluted to 10 nM in running buffer and captured onto a sensor surface pre-derivatized with streptavidin (sensor chip SA) towards peptide surface densities in the range 40-100 R.U. Peptide captured surfaces were blocked with 500 μM PEO2-Biotin (Thermo Scientific).
(§6) Interaction analyses were performed by first equilibrating each compound within a six point seven fold compound dilution series in the range 1 μM to 0.06 nM with either 100 nM XIAP-BIR3 or 6 nM cIAP1-BIR3 for at least one hour during instrument start-up procedures. Protein compound mixtures were then injected over reference and smac7mer peptide surfaces in series for 60 seconds at a flow-rate of 60 μL/min. Surface regeneration was performed at the end of each analysis cycle by a 30 second injection of 10 mM Glycine, pH 2.5, 1M Sodium Chloride, 0.05% polysorbate 20. Additionally, control compound samples and control XIAP-BIR3 or cIAP1-BIR3 samples were prepared and run at regular intervals to monitor surface and assay performance.
(§7) Data analyses were carried out using Biacore™ T100 evaluation software v2.0 to validate assay quality. Binding level report points were plotted versus logarithmic compound concentration values and analyzed in Graphpad prism 5 via non-linear regression using a one-site competition model. EC50 values were generated and used as a measure of inhibitor potency.
A general note: Surface plasmon resonance follows binding to a sensor surface in real time, without labels.

Another assay deals with Panc3.27 tumor cells. The assay can be described thus: Cellular assay: Panc3.27 tumor cell proliferation (Cell Titer Glo). Format: cell-based. As to conditions: Panc3.27 cells, 4000 cells per well, 72 hour growth, CTG readout, percent control growth; read-out: PANC proliferation IC50. The method, then:
as §1
Cellular Assay—Treatment of Panc3.27 Tumor Cells with Dimeric IAP Antagonists
On day one adherent Panc3.27 cells are plated into two 96-well, clear, flat bottom plates. All wells in row A contain 90 uL of media. All wells in rows B-G contain a total volume of 90 uL per well and 4000 cells per well for Panc3.27 cell lines. Plates are then incubated overnight for 18 hours at 37° C., 5% CO2.
On day two cells are treated with the compounds of formula M-L-M′. Treatments are done in triplicate. The compounds are first serially diluted in DMSO and then added to media giving a final concentration of 0.2% DMSO when added to cells. Cells are treated with 10 uL of serially diluted compounds of formula M-L-M′ at a final concentration of 1000 nM, 200 nM, 40 nM, 8 nM, 1.6 nM, 0.32 nM, 0.06 nM, 0.013 nM, 0.0026 nM, and one untreated well. Plate two is used as a time zero plate.
To measure cell viability 50 uL of Cell Titer Glo (CTG) solution is added to row A, media only and B, cells and media. CTG is purchased from Promega Corporation catalog number G7573. The solution is prepared according to manufacturer's instructions. CTG measures the amount of ATP released from viable cells that is proportional to the number of cells in each well. After incubating for ten minutes with CTG plates are measured on a luminescent reader at 700 nm wavelength. Read time is approximately one second per well for a 96-well plate.
On day five 50 uL of CTG is added to plate one, rows A-G, incubated for 10 minutes at room temperature and read on a luminescent reader. Raw data is adjusted to account for the time zero plate as well as background noise. Triplicate values are averaged and percent control growth is calculated. Percent control growth is calculated using the following logical test: If well read data point (a) is greater than time zero data point (t=0), then 100*[(a)−(t=0)]/[(72 hour total growth)−(t=0)], OR 100*[(a)−(t=0)]/[(t=0)]. Data is represented by line graph with the concentration of compound on the x axis and percent control growth on the y axis.
For orientation: In ATP-based viability assays light output follows the ATP content of the culture.

The target of a further assay is XIAP-BIR3 (Homo sapiens, UniProt P98170). As to the kind of experiment: Biacore SPR solution competition binding assay vs smac7mer peptide, XIAP-BIR3. The note with it: 100 nM XIAP-BIR3, read-out: XIAP-BIR3 Binding Biacore (Competitive) EC50.
Sequence of XIAP-BIR3 (P98170 241-356 limits assumed): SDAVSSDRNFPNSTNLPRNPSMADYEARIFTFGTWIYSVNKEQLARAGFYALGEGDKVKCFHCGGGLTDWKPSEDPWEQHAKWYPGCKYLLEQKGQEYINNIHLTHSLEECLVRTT
Excerpt: as §1, §2, §3, §4, §5, §6, §7

[1] abbreviates: SPR competition with captured smac7mer peptide, 25° C.

As a reminder, the EC50 is the concentration that produces a half-maximal response.

Sequence of cIAP1-BIR3 (Q13490 253-363 limits assumed): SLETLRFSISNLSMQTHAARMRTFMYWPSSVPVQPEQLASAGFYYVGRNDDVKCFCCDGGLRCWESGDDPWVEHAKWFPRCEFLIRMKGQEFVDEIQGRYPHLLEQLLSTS

On to `CN[C@@H](C)C(=O)N[C@H](C(=O)N1CCC[C@H]1c1cncc(-c2ccc(F)c(C(=O)NCCCOCCOCCOCCOCCOCCCNC(=O)c3cc(-c4cncc([C@@H]5CCCN5C(=O)[C@@H](NC(=O)[C@H](C)NC)C5CCCCC5)c4)ccc3F)c2)c1)C1CCCCC1` [Example 1A-1], for which the concentration giving a half-maximal response (EC50) is 1.55 to 1.6 nM at cIAP1-BIR3 (Tested as the citrate salt (footnote 1), SPR competition with smac7mer peptide) and 353 to 359 nM on XIAP-BIR3 (setting [1]). In the assay on Panc3.27 tumor cells, the IC50 was 0.15 to 2.87 nM.
For `CN[C@@H](C)C(=O)N[C@H](C(=O)N1CCC[C@H]1c1cncc(-c2ccc(F)c(C(=O)NCCNC(=O)c3cc(-c4cncc([C@@H]5CCCN5C(=O)[C@@H](NC(=O)[C@H](C)NC)C5CCCCC5)c4)ccc3F)c2)c1)C1CCCCC1` [Example 2A-1], the 50% effective concentration (EC50) on cIAP1-BIR3 (setting [1]) fell in the range of 1.1 to 1.11 nM; at XIAP-BIR3 (setting [1]), 135 to 136 nM. The IC50 with Panc3.27 tumor cells lay in the range of 2.11 to 7.69 nM.
On to `CN[C@@H](C)C(=O)N[C@H](C(=O)N1CCC[C@H]1c1cncc(-c2ccc(F)c(C(=O)NCc3ccc(CNC(=O)c4cc(-c5cncc([C@@H]6CCCN6C(=O)[C@@H](NC(=O)[C@H](C)NC)C6CCCCC6)c5)ccc4F)cc3)c2)c1)C1CCCCC1` [Example 2B-1, (S,S,S)—N,N′-(1,4-phenylenebis(methylene))bis(5-(5-((S)-1-((S)-2-cyclohexyl-2-((S)-2-(methylamino)propanamido)acetyl)pyrrolidin-2-yl)pyridin-3-yl)-2-fluorobenzamide)], for which the EC50 on cIAP1-BIR3 (setting [1]) lay within 0.77 to 0.79 nM; at XIAP-BIR3 (setting [1]), 347 to 353 nM. The IC50 in the assay on Panc3.27 tumor cells is less than 0.0026 nM.
Turning to `CN[C@@H](C)C(=O)N[C@H](C(=O)N1CCC[C@H]1c1cncc(-c2ccc(F)c(C(=O)NCc3ccc(-c4ccc(CNC(=O)c5cc(-c6cncc([C@@H]7CCCN7C(=O)[C@@H](NC(=O)[C@H](C)NC)C7CCCCC7)c6)ccc5F)cc4)cc3)c2)c1)C1CCCCC1` [Example 2C-2, (S,S,S)—N,N′-(biphenyl-4,4′-diylbis(methylene))bis(5-(5-((S)-1-((S)-2-cyclohexyl-2-((S)-2-(methylamino)propanamido)acetyl)pyrrolidin-2-yl)pyridin-3-yl)-2-fluorobenzamide)], the EC50 on cIAP1-BIR3 (setting [1]) was in the range of 0.98 to 0.99 nM; on XIAP-BIR3 (Tested as the trifluoroacetate salt (footnote 2), SPR competition with smac7mer peptide) it was 2330 to 2390 nM. Also, the IC50 in the assay on Panc3.27 tumor cells is less than 0.0026 nM.
On to `CN[C@@H](C)C(=O)N[C@H](C(=O)N1CCC[C@H]1c1cncc(-c2ccc(F)c(C(=O)NCCCCCCCCCCNC(=O)c3cc(-c4cncc([C@@H]5CCCN5C(=O)[C@@H](NC(=O)[C@H](C)NC)C5CCCCC5)c4)ccc3F)c2)c1)C1CCCCC1` [Example 2D-1], for which the results for the 50% effective concentration (EC50) on cIAP1-BIR3 (setting [1]) and on XIAP-BIR3 (setting [1]) were 1.35 to 2.17 nM and 1520 to 1920 nM, respectively. In the assay with Panc3.27 tumor cells, the IC50 fell in the range of 0.0026 to 0.15 nM.
On the same counts, the results for `CN[C@@H](C)C(=O)N[C@H](C(=O)N1CCC[C@H]1c1cncc(-c2ccc(F)c(C(=O)NCCCCCCCCCCCCNC(=O)c3cc(-c4cncc([C@@H]5CCCN5C(=O)[C@@H](NC(=O)[C@H](C)NC)C5CCCCC5)c4)ccc3F)c2)c1)C1CCCCC1` [Example 2E-1] are 5.65 to 6.37 nM, greater than 1000 nM and 0.07 to 4.93 nM.
Regarding `CN[C@@H](C)C(=O)N[C@H](C(=O)N1CCC[C@H]1c1cncc(-c2ccc(F)c(C(=O)NCCCCCCNC(=O)c3cc(-c4cncc([C@@H]5CCCN5C(=O)[C@@H](NC(=O)[C@H](C)NC)C5CCCCC5)c4)ccc3F)c2)c1)C1CCCCC1` [Example 2F-1], the EC50 on cIAP1-BIR3 (setting [1]) lay in the range of 1.34 to 1.36 nM; at XIAP-BIR3 (setting [1]), 305 to 306 nM. In the assay with Panc3.27 tumor cells, the IC50 fell in the range of 0.0026 to 0.01 nM.
For `CN[C@@H](C)C(=O)N[C@H](C(=O)N1CCC[C@H]1c1cncc(-c2ccc(F)c(C(=O)NCCCCCCCCNC(=O)c3cc(-c4cncc([C@@H]5CCCN5C(=O)[C@@H](NC(=O)[C@H](C)NC)C5CCCCC5)c4)ccc3F)c2)c1)C1CCCCC1` [Example 2G-1, (S,S,S)—N,N′-(octane-1,8-diyl)bis(5-(5-((S)-1-((S)-2-cyclohexyl-2-((S)-2-(methylamino)propanamido)acetyl)pyrrolidin-2-yl)pyridin-3-yl)-2-fluorobenzamide)] the same measures were 1.26 to 1.31 nM, 426 to 495 nM and 0.0026 to 0.03 nM.
Turning to `CN[C@@H](C)C(=O)N[C@H](C(=O)N1CCC[C@H]1c1cncc(-c2ccc(F)c(C(=O)NCCOCCOCCNC(=O)c3cc(-c4cncc([C@@H]5CCCN5C(=O)[C@@H](NC(=O)[C@H](C)NC)C5CCCCC5)c4)ccc3F)c2)c1)C1CCCCC1` [Example 2H-1], the half-maximal effective concentration (EC50) was in the range of 1.84 to 1.89 nM on cIAP1-BIR3 (setting [1]) and 244 to 252 nM on XIAP-BIR3 (setting [1]). Besides, the IC50 with Panc3.27 tumor cells was 0.03 to 0.07 nM.
Regarding `CN[C@@H](C)C(=O)N[C@H](C(=O)N1CCC[C@H]1c1cncc(-c2ccc(F)c(C(=O)NCCCCNC(=O)c3cc(-c4cncc([C@@H]5CCCN5C(=O)[C@@H](NC(=O)[C@H](C)NC)C5CCCCC5)c4)ccc3F)c2)c1)C1CCCCC1` [Example 2I-1], the EC50 lay in the range of 2.79 to 2.8 nM at cIAP1-BIR3 (setting [1]) and 318 to 326 nM on XIAP-BIR3 (setting [1]). The IC50 with Panc3.27 tumor cells lay in the range of 0.0026 to 0.4 nM.
In the case of `CN[C@@H](C)C(=O)N[C@H](C(=O)N1CCC[C@H]1c1cncc(-c2ccc(F)c(C(=O)NCCCOCCOCCOCCCNC(=O)c3cc(-c4cncc([C@@H]5CCCN5C(=O)[C@@H](NC(=O)[C@H](C)NC)C5CCCCC5)c4)ccc3F)c2)c1)C1CCCCC1` [Example 2J-2], the half-maximal effective concentration (EC50) is 1.39 to 1.4 nM on cIAP1-BIR3 (setting [1]) and 156 nM at XIAP-BIR3 (setting [1]). Further, the IC50 in the assay on Panc3.27 tumor cells lay within 0.03 to 0.59 nM.
For the compound `CN[C@@H](C)C(=O)N[C@H](C(=O)N1CCC[C@H]1c1cncc(-c2ccc(F)c(C(=O)N[C@H]3CC[C@H](NC(=O)c4cc(-c5cncc([C@@H]6CCCN6C(=O)[C@@H](NC(=O)[C@H](C)NC)C6CCCCC6)c5)ccc4F)CC3)c2)c1)C1CCCCC1` [Example 2K-1], the concentration for a half-maximal effect (EC50) on cIAP1-BIR3 (setting [1]) fell in the range of 1.65 to 1.66 nM; on XIAP-BIR3 (setting [1]) it was 321 to 322 nM. Moreover, the IC50 in the assay with Panc3.27 tumor cells is less than 0.0026 nM.
On the same counts, the results for `CN[C@@H](C)C(=O)N[C@H](C(=O)N1CCC[C@H]1c1cncc(-c2ccc(F)c(C(=O)NCCCOCCOCCCNC(=O)c3cc(-c4cncc([C@@H]5CCCN5C(=O)[C@@H](NC(=O)[C@H](C)NC)C5CCCCC5)c4)ccc3F)c2)c1)C1CCCCC1` [Example 2L-2] are 3.35 to 3.38 nM, 480 to 488 nM and 0.01 to 0.56 nM.
`CN[C@@H](C)C(=O)N[C@H](C(=O)N1CCC[C@H]1c1cncc(-c2ccc(F)c(C(=O)N3CC4(C3)CN(C(=O)c3cc(-c5cncc([C@@H]6CCCN6C(=O)[C@@H](NC(=O)[C@H](C)NC)C6CCCCC6)c5)ccc3F)C4)c2)c1)C1CCCCC1` [Example 2M-2]: the EC50 is 3.74 to 3.75 nM on cIAP1-BIR3 (setting [1]) and 176 to 177 nM at XIAP-BIR3 (setting [1]). Also, in the assay on Panc3.27 tumor cells, the IC50 lay in the range of 9.02 to 40.8 nM.
